Measured values taken from PMC6390472, “‘Second-generation’ 1,2,3-triazole-based inhibitors of Porphyromonas gingivalis adherence to oral streptococci and biofilm formation” (MedChemComm, 2019).
Like-named read-outs stand apart in the source and are kept apart here.

What was measured:
[1] = system: P. gingivalis adherence to S. gordonii; assay: Biofilm model of P. gingivalis adherence to S. gordonii (confocal, green/red fluorescence ratio); assay type: cell-based, P. gingivalis ATCC33277 / S. gordonii DL-1; conditions: inhibition of P. gingivalis adherence to S. gordonii; concentration that reduced ratio of green to red fluorescence by 50%; tested 0–60 μM
Description: (§1) P. gingivalis ATCC33277 was grown in reduced trypticase soy broth (Difco) supplemented with 0.5 percent yeast extract, 1 μg mL^–1 menadione, and 5 μg mL^–1 hemin. Twenty five milliliters of medium were reduced for 24 h under anaerobic conditions by equilibrating in an atmosphere consisting of 10% CO2, 10% H2, and 80% N2. Following equilibration, P. gingivalis was inoculated in the medium and grown for 48 h at 37 °C under anaerobic conditions. S. gordonii DL-1 (1) was cultured aerobically without shaking in brain heart infusion (BHI) broth supplemented with 1 percent yeast extract for 16 hours at 37 °C. For some compounds that inhibited P. gingivalis adherence to S. gordonii, we determined their effect on planktonic growth of P. gingivalis and S. gordonii. The appropriate growth medium (10 ml) was supplemented with 10 μl of a 40 mM compound stock solution in DMSO. After inoculation, broth cultures were incubated as described above and compared to cultures grown in medium that was supplemented only with 0.1% DMSO. The cell density of each culture was determined by measuring the optical density at 600 nm (O.D.600nm) and the percent growth inhibition/stimulation was calculated using the following equation: [(O.D.600nm of the control/O.D.600nm of the culture grown in the presence of compound) – 1] × 100.
Two species biofilms were formed essentially as previously described.[39] To prepare bacterial cells for biofilm culture, 10 ml of an overnight S. gordonii culture was centrifuged at 5600 rpm for 5 min and the cell pellet was suspended in 1 mL sterile PBS. Subsequently, 20 μL of 5 mg ml^–1 hexidium iodide (Molecular Probes) was added to the cell suspension and incubated for 15 min with gentle shaking at room temperature in the dark. The labeled cells were centrifuged as described above, washed with phosphate-buffered saline (10 mM Na2HPO4, […], […], and 2.7 mM KCl, pH 7.2; [PBS]) and the cell pellet was suspended in PBS at a final O.D.600nm of 0.8. Similarly, 10 mL of a 48 h culture of P. gingivalis was centrifuged at 5600 rpm for 15 min, the cell pellet was suspended in 1 mL PBS and 20 μL of 5(6)-carboxyfluorescein N-hydroxysuccinimide ester (4 mg ml^–1, Molecular Probes, Inc.) was added. After incubation for 30 min with gentle shaking at room temperature in the dark, the suspension was centrifuged and washed as described above and suspended in PBS at a final O.D.600nm of 0.4. For biofilm cultures, 1 mL of labeled S. gordonii cells was added to each well of a 12-well microtiter plate (Greiner Bio-one) containing a circular coverslip (Fisher brand) and incubated in an anaerobic chamber with rotary shaking for 24 h at 37 °C. Unbound cells were removed by aspiration and 1 ml of labeled P. gingivalis cells containing the desired concentration of test compound was added and incubated under anaerobic conditions for 22 h at 37 °C. Test compounds were dissolved in dimethyl sulfoxide (DMSO) to generate 1000× stock solutions and were routinely tested over a final concentration range of 0–60 μM. 1 μL of the appropriate stock solution was added to each 1 mL aliquot of labeled P. gingivalis cells and incubated for 30 min at room temperature prior to adding the suspension to the microtiter plate wells. For control biofilms, 1 μL of DMSO was added to 1 mL of labeled P. gingivalis and incubated as described above.
To visualize P. gingivalis/S. gordonii biofilms, unbound P. gingivalis cells were removed by aspiration and coverslips were washed once with PBS. Biofilms were fixed by incubating the coverslips with 1 mL of 4% paraformaldehyde for 5 min followed by two washes with PBS. The coverslips were then removed, placed face down on a glass microscope slide containing a drop of antifade reagent (Life Technology) and sealed with nail polish. […]

P. gingivalis = assay: Planktonic growth of P. gingivalis (O.D.600nm); assay type: cell-based, P. gingivalis ATCC33277; conditions: Porphyromonas gingivalis, read-out: Percent inhibition of: P. gingivalis (planktonic growth)
Description: as §1

S. gordonii = assay: Planktonic growth of S. gordonii (O.D.600nm); assay type: cell-based, S. gordonii DL-1; conditions: Streptococcus gordonii, read-out: Percent inhibition of: S. gordonii (planktonic growth)
Description: as §1

TIGK cells = assay: Cellular ATP levels, CellTiterGlo; assay type: cell-based, Human; conditions: for ATP levels: 95 (5, 20, 40 μM), 111 (5, 20, 60 μM), 115 (5, 10, 20 μM), 122 (5, 20, 60 μM)
Description: Human telomerase immortalized gingival keratinocytes (TIGKs) were provided by Dr. Richard Lamont (University of Louisville) and were authenticated by comparison to primary gingival epithelial cells for cell morphology, growth, cytokeratin expression and the expression of toll-like receptors. TIGKs were cultured at 37 °C in an atmosphere of 5% CO2 in Basal Medium Dermalife K complete kit with Supplements (LifeLine, Frederick, MD). Cultures were incubated for 5 days and attained >95% confluence.
Cell metabolic activity was assessed by quantifying total ATP levels in cell culture samples using CellTiterGlo reagent (Promega). TIGK and J774A.1 cells were cultured and incubated with compounds as described above, washed three times with sterile PBS and incubated with 100 μl of CellTiterGlo substrate for 2 min with shaking and for an additional 10 min without shaking. Total light production was measured using a Victor 3 multi-label plate reader (PerkinElmer) in luminometer mode. All samples were assayed in triplicate.

[2] = 40 μM compound, cultures incubated overnight, vs 0.1% DMSO

Compound | IC50 [1] | inhibition at 40 µM (P. gingivalis; [2]) | inhibition at 40 µM (S. gordonii; [2]) | also measured
COc1ccccc1-c1cn(-c2ccc(S(=O)(=O)Cc3nc(-c4ccc(F)cc4)c(-c4ccc(F)cc4)o3)cc2)nn1 [Compound 54] | 21.2 µM | -3.4% | -3.3% | 
O=S(=O)(Cc1nc(-c2ccc(Cl)cc2)c(-c2ccc(Cl)cc2)o1)c1ccc(-n2cc(-c3ccc(F)cc3)nn2)cc1 [Compound 56] | 6.3 µM | -2.7% | 6.2 ± 8.8% | 
COc1ccccc1-c1cn(-c2ccc(S(=O)(=O)Cc3nc(-c4ccc(Cl)cc4)c(-c4ccc(Cl)cc4)o3)cc2)nn1 [Compound 57] | 20 µM |  |  | melting point: 236 to 238 °C
CCN(CC)c1nc(-c2cn(-c3ccc(-c4nc(-c5ccc(F)cc5)c(-c5ccc(F)cc5)o4)cc3)nn2)nc(N(CC)CC)n1 [Compound 93] | 9.4 µM | 2 ± 6.1% | -2% | 
CCN(CC)c1nc(-c2cn(-c3ccc(-c4nc(-c5ccc(Cl)cc5)c(-c5ccc(Cl)cc5)o4)cc3)nn2)nc(N(CC)CC)n1 [Compound 95] | 3.7 µM | 0.4 ± 6.1% | -0.8% | ATP levels (TIGK cells; 18 h exposure): did not significantly reduce the levels of ATP
Fc1ccc(-c2nc(-c3cccc(-n4cc(-c5nc(Nc6ccccc6F)nc(Nc6ccccc6F)n5)nn4)c3)oc2-c2ccc(F)cc2)cc1 [Compound 102] | 5 µM | -8.3% | -0.6% | 
Fc1ccc(-c2nc(-c3ccc(-n4cc(-c5nc(Nc6ccccc6F)nc(Nc6ccccc6F)n5)nn4)cc3)oc2-c2ccc(F)cc2)cc1 [Compound 103] | 12.3 µM | -1.3% | -8.6% | 
Fc1ccc(Nc2nc(Nc3ccc(F)cc3)nc(-c3cn(-c4cccc(-c5nc(-c6ccccc6)c(-c6ccccc6)o5)c4)nn3)n2)cc1 [Compound 111] | 4.3 µM |  |  | Concentration with cytotoxic activity relative to IC50 for inhibition of adherence (TIGK cells; 60 μM vs IC50): approximately 15 fold; Reduction of ATP levels (TIGK cells; 18 h exposure, 60 μM, p < 0.05 vs 0.1% DMSO): statistically significant; ATP levels (TIGK cells; 18 h exposure): dose-dependent reduction of ATP levels; inhibition at 40 µM (P. gingivalis): 8.3 ± 3.6%; inhibition at 40 µM (S. gordonii): 2.9 ± 3.9%
Fc1ccc(Nc2nc(Nc3ccc(F)cc3)nc(-c3cn(-c4ccccc4-c4nc(-c5ccc(F)cc5)c(-c5ccc(F)cc5)o4)nn3)n2)cc1 [Compound 113] | 49.2 µM |  |  | 
Fc1ccc(Nc2nc(Nc3ccc(F)cc3)nc(-c3cn(-c4cccc(-c5nc(-c6ccc(F)cc6)c(-c6ccc(F)cc6)o5)c4)nn3)n2)cc1 [Compound 114] | > 60 µM |  |  | 
Fc1ccc(Nc2nc(Nc3ccc(F)cc3)nc(-c3cn(-c4ccc(-c5nc(-c6ccc(F)cc6)c(-c6ccc(F)cc6)o5)cc4)nn3)n2)cc1 [Compound 115] | 2.3 µM | -2.8% | -0.6% | ATP levels (TIGK cells; 18 h exposure): did not significantly reduce the levels of ATP
Fc1ccc(Nc2nc(Nc3ccc(F)cc3)nc(-c3cn(-c4ccccc4-c4nc(-c5ccc(Cl)cc5)c(-c5ccc(Cl)cc5)o4)nn3)n2)cc1 [Compound 116] | > 40 µM |  |  | 
Fc1ccc(Nc2nc(Nc3ccc(F)cc3)nc(-c3cn(-c4cccc(-c5nc(-c6ccc(Cl)cc6)c(-c6ccc(Cl)cc6)o5)c4)nn3)n2)cc1 [Compound 117] | 27.8 µM |  |  | 
Fc1ccc(Nc2nc(Nc3ccc(F)cc3)nc(-c3cn(-c4ccc(-c5nc(-c6ccc(Cl)cc6)c(-c6ccc(Cl)cc6)o5)cc4)nn3)n2)cc1 [Compound 118] | 13.3 µM |  |  | 
COc1ccc(-c2nc(-c3ccccc3-n3cc(-c4nc(Nc5ccc(F)cc5)nc(Nc5ccc(F)cc5)n4)nn3)oc2-c2ccc(OC)cc2)cc1 [Compound 119] | > 60 µM |  |  | 
COc1ccc(-c2nc(-c3cccc(-n4cc(-c5nc(Nc6ccc(F)cc6)nc(Nc6ccc(F)cc6)n5)nn4)c3)oc2-c2ccc(OC)cc2)cc1 [Compound 120] | > 60 µM |  |  | 
COc1ccc(-c2nc(-c3ccc(-n4cc(-c5nc(Nc6ccc(F)cc6)nc(Nc6ccc(F)cc6)n5)nn4)cc3)oc2-c2ccc(OC)cc2)cc1 [Compound 121] | > 60 µM |  |  | 
Fc1ccc(Nc2nc(Nc3ccc(F)cc3)nc(-c3cn(-c4ccccc4-c4nc(-c5ccco5)c(-c5ccco5)o4)nn3)n2)cc1 [Compound 122] | 2.4 µM | 2.5 ± 5.4% | -0.6% | ATP levels (TIGK cells; 18 h exposure): did not significantly reduce the levels of ATP
Fc1ccc(Nc2nc(Nc3ccc(F)cc3)nc(-c3cn(-c4cccc(-c5nc(-c6ccco6)c(-c6ccco6)o5)c4)nn3)n2)cc1 [Compound 123] | 8 µM |  |  | 
Fc1ccc(Nc2nc(Nc3ccc(F)cc3)nc(-c3cn(-c4ccc(-c5nc(-c6ccco6)c(-c6ccco6)o5)cc4)nn3)n2)cc1 [Compound 124] | 7.8 µM |  |  | 
CN(C)[C@@H]1C(O)=C(C(N)=O)C(=O)[C@@]2(O)C(O)=C3C(=O)c4c(O)cccc4[C@@](C)(O)[C@H]3C[C@@H]12 [Tet, tetracycline, reference compound] |  |  |  | inhibition at 10 µg/mL (P. gingivalis; 10 μg ml^–1 tetracycline): 95.7 ± 1.2%; inhibition at 10 µg/mL (S. gordonii; 10 μg ml^–1 tetracycline): 94.2 ± 1.7%
